Test results taken from patent US20210030725A1, “RESTORATION OF TRANSMEMBRANE COPPER TRANSPORT” (The Board of Trustees of the University of Illinois, priority 2018, published 2021).

Key:
[1] = test system: DELccc2 yeast strain missing the intracellular ATP-driven copper pump CCC2; experiment: Growth rescue of DELccc2 yeast in liquid culture; format: cell-based
Procedure: (§1) Growth rescue in yeast was performed using 10 μM hinokitiol in SD media in a 96-well plate unless otherwise noted. Wild type and DELccc2 yeast strain treated with vehicle (DMSO) or hinokitiol were performed under identical conditions using a normal iron-containing, no-copper containing SD media, this time supplemented with 1.5 or 2 μM CuCl2. Yeast were grown overnight in YPD media and diluted at an OD600 of 0.1 in SD media, diluted 10-fold, and incubated at 30° C. with continuous shaking (200 rpm). The OD600 was obtained 48 hours after inoculation unless otherwise noted. Small molecule dose-response with hinokitiol was determined by addition of the small molecule (40× stock solution in DMSO) to give the indicated final concentrations. Copper dose-response studies were performed in low copper SD media without CuCl2 containing the indicated concentrations of hinokitiol (from a 40× stock solution in DMSO). For dose-dependent hinokitiol-promoted rescue at increasing dosages of CuCl2, SD media was made containing the indicated concentrations of CuCl2 from 1000× CuCl2 stocks before adding hinokitiol (40× stock solution in DMSO) to give the indicated final concentrations. […]

[2] = Copper (II) transport across liposomal membranes, hinokitiol vs water-soluble chelators; conditions: relative to controls
[3] = test system: iron transporter-deficient yeast missing the FetFtr1 transport complex; experiment: Growth rescue of iron transporter-deficient yeast; format: cell-based, Saccharomyces cerevisiae; conditions: respiratory and non-permissive copper conditions
[4] = UV-vis titration with copper (II) chloride; format: binding
[5] = Partitioning of chelator:copper complex between octanol and water; format: physicochemical; conditions: hinokitiol:copper complex
Procedure: Biophysical experiments were performed to better understand the capacity of hinokitiol to bind and transport copper. […] Unlike the aforementioned water-soluble copper chelators, the hinokitiol:copper complex primarily partitioned into the nonpolar solvents over water (FIG. 4A). To expand, 95% of the hinokitiol:copper complex partitioned into octanol over water as opposed to >85% of the currently available water-soluble chelators partitioned into water over octanol.

[6] = test system: Δctr1Δctr3 yeast missing the passive copper transporters Ctr1Ctr3; experiment: Growth rescue of Δctr1Δctr3 yeast; format: cell-based, Saccharomyces cerevisiae; conditions: respiratory and non-permissive conditions, copper dependent, maximum at intermediate hinokitiol concentrations
Procedure: as §1, with “DELctr1DELctr3” for “DELccc2”, “strain controls” for “strain”, “media,” for “media, this time”, “1.0” for “1.5 or 2”

[7] = test system: DELccc2 yeast strain missing the intracellular ATP-driven copper pump CCC2; experiment: Growth rescue of DELccc2 yeast on solid media; format: cell-based
Procedure: Growth rescue in yeast was performed on SD-agar plates in 50 mM MES/Tris buffer at pH=7.0 containing 2% agarose gel, and 10 μM hinokitiol (from 40× stock in DMSO). Wild type and DELccc2 yeast strain controls treated with vehicle (DMSO) were performed under identical conditions using a no-copper containing SD media supplemented with 0.5 μM CuCl2 in the absence of hinokitiol. Yeast were grown overnight in YPD media and diluted to an optical density at 600 nm (OD600) of 1.0 in low copper SD media before 10-fold serial dilution and inoculation of these yeast suspensions (10 μL per dot) onto the low copper SD-agar plates described above containing either DMSO vehicle or hinokitiol (10 μM from 40× DMSO stock). For disc diffusion assays, yeast were grown overnight in YPD media and diluted to an OD600=0.1 in low copper SD media and streaked onto low copper SD-agar plates containing 0.5 μM CuCl2. Disc diffusion assays were performed using either DMSO or 10 mM stock solutions (in DMSO) of hinokitiol on low copper SD-agar plates containing 0.5 μM CuCl2 streaked with the appropriate yeast strain (from OD600=0.1 in low copper SD media). Images were taken 48 hours after inoculation and incubation at 30° C. unless otherwise noted. […]

[8] = Stoichiometric metal competition, ICP-MS quantification of extracted hinokitiol-bound metal; format: binding; conditions: 1 mM each divalent metal, 1 mM hinokitiol, 10 mM Mes/Tris, 1:1 MeOH:H2O, pH 7.0, N=6
Procedure: Hinokitiol binds to and sequesters copper with a greater affinity than any other metal (including iron). Stoichiometric competition experiments with 1 mM of each divalent metal and 1 mM hinokitiol in a 10 mM Mes/Tris buffer in 1:1 MeOH:H2O at pH=7.0. Hinokitiol binds many metals by ICP-MS quantification of extracted hinokitiol-bound metal. The metal in the organic layer was determined to be in the order of Cu>Fe>Mn≈Zn>Co>Ni. ND=Not detected. N=6. (FIG. 2)

[9] = Hinokitiol-promoted release of divalent metals from POPC liposomes (PhenGreen assay); conditions: hinokitiol 10 μM
Procedure: Hinokitiol-promoted release of different divalent metals from POPC liposomes was performed by tracking the quenching of PhenGreen (Fisher P14312) similar to previously reported. Liposomes were prepared as described above with an internal buffer consisting of either 10 mM ascorbate in a 5 mM MES/Tris buffer at pH=7.0 (for Fe^2+), 10 mM citrate in a 5 mM MES/Tris buffer at pH=7.0 (for Cu^2+), or a 5 mM MES/Tris buffer at pH=7.0 (for Mn^2+, Co^2+, and Zn^2+). In all cases, liposomes were prepared using 5 mM of either FeCl2, MnCl2, CoCl2, NiCl2, ZnCl2, or CuCl2 added to the internal buffer. […] The fluorescence was monitored with excitation at 500 nm and emission at 530 nm over 1 hour. After one hour, the liposomes were lysed with Triton-X and the fluorescence was recorded. […] The DMSO-treated and hinokitiol-treated liposomes had similar fluorescence quenching levels after lysis. The total amount of metal efflux was determined using standard curves of fluorescence quenching in external buffer with 10 μM PhenGreen and known concentrations of each metal. The t1/2 values were calculated using an asymptotic fit in OriginPro. […] Hinokitiol (10 μM) rapidly promotes the efflux of multiple divalent metals from POPC liposomes as determined by a PhenGreen assay. […] Quantification of metal release was done by comparison of fluorescence quenching to a standard curve for each metal. […]

Compound: CC(C)c1cccc(=O)c(O)c1 [hinokitiol, 2-hydroxy-6-propan-2-ylcyclohepta-2,4,6-trien-1-one]
- growth rescue [1]: Vigorous rescue
- copper (II) transport across liposomal membranes [2]: transported copper (II) across liposomal membranes
- restoration of yeast growth [3]: unable to restore growth
- copper binding (complex formation, shift in UV-vis spectra) [4]: readily binds copper
- share of copper complex partitioned into octanol over water [5]: 95%
- restoration of yeast growth [6]: dose-dependently restored yeast growth up to wild type control levels
- growth rescue [7]: Vigorous rescue
- order of metal in the organic layer (extracted hinokitiol-bound metal) [8]: Cu>Fe>Mn≈Zn>Co>Ni
- transport of MnII from liposomes [9]: unable to transport
